Results taken from ChEMBL document CHEMBL1157111, “Oridamycins A and B, anti-Saprolegnia parasitica indolosesquiterpenes isolated from Streptomyces sp. KS84” (2010).
Converted amounts (≈) assume the structure as drawn. The source made the active and inactive calls. No cut-off for these calls is given here.

Tests used:
Saprolegnia parasitica = assay: Antifungal activity against Saprolegnia parasitica assessed as inhibition of hyphae elongation after 24 hrs; format: functional
Phoma = assay: Antifungal activity against Phoma CCF3818 assessed as inhibition of hyphae elongation after 24 hrs; format: functional; conditions: CCF3818, 24 h
Saccharomyces cerevisiae = assay: Antifungal activity against Saccharomyces cerevisiae at 1000 ug/ml after 24 hrs; format: functional, organism-based

SMILES | MIC (Saprolegnia parasitica) | MIC (Phoma) | MIC (Saccharomyces cerevisiae)
C[C@]1(C(=O)O)[C@@H](O)CC[C@]2(C)c3cc4c(cc3CC[C@@H]12)[nH]c1ccccc14 [ORIDAMYCIN A] | 3 µg/mL (≈ 8.25 µM) | 242 µg/mL (≈ 666 µM) | inactive
C[C@@H]1C[C@@H]([C@H](O)CC2CC(=O)NC(=O)C2)C(=O)[C@@H](C)C1 [CYCLOHEXIMIDE] |  | 25 µg/mL (≈ 88.9 µM) | 
